Source: US9936699B2, “Halogen-substituted compounds” (BAYER CROPSCIENCE AKTIENGESELLSCHAFT, priority 2014, dated 2018)
One block for each compound: values may come before it.

Legend:
[1] = logP determination by HPLC on reversed-phase column (C18), EEC Directive 79/831 Annex V.A8; format: physicochemical; conditions: reversed-phase C18, acetonitrile/water with formic acid; for chromatographic logP: reversed-phase C18 HPLC column
[2] = tested on: adult engorged female ticks (Boophilus microplus); experiment: Boophilus microplus injection test (BOOPMI Inj); format: in vivo; conditions: 20 μg/animal, egg deposition after 7 days
Method: Boophilus microplus—Injectiontest (BOOPMI Inj)
(§1) Solvent: dimethyl sulfoxide
Five adult engorged female ticks (Boophilus microplus) are injected with 1 μl compound solution into the abdomen. The ticks are transferred into replica plates and incubated in a climate chamber.
(§2) After 7 days egg deposition of fertile eggs is monitored. Eggs where fertility is not visible are stored in a climate chamber till hatching after about 42 days. An efficacy of 100% means all eggs are infertile; 0% means all eggs are fertile.

[3] = tested on: larvae of the Australian sheep blowfly (Lucilia cuprina); experiment: Lucilia cuprina test (LUCICU); format: in vivo; conditions: 100 ppm, after 2 days
Method: Lucilia cuprina—Test (LUCICU)
as §1
10 mg active compound are dissolved in 0.5 ml Dimethylsulfoxid. Serial dilutions are made to obtain the desired rates.
Approximately 20 […] instar larvae of the Australian sheep blowfly (Lucilia cuprina) are transferred into a test tube containing minced horse meat and compound solution of the desired concentration.

[4] = tested on: green peach aphid (Myzus persicae); experiment: Myzus persicae spray test (pepper leaves); format: in vivo; conditions: after 6 days
[5] = tested on: green peach aphid (Myzus persicae); experiment: Myzus persicae spray test (Chinese cabbage leaf disks); format: in vivo; conditions: 20 g/ha, after 6 days
Method: Myzus persicae—Spray Test
(§3) Solvent: 78.0 parts by weight acetone
(§4) • 1.5 parts by weight dimethylformamide Emulsifier: alkylarylpolyglycol ether
Chinese cabbage (Brassica pekinensis) leaf disks infected with all instars of the green peach aphid (Myzus persicae), are sprayed with a preparation of the active ingredient of the desired concentration.
(§5) After 6 days mortality in % is determined.

[6] = tested on: Tick nymphs (Amblyomma hebraeum); experiment: Amblyomma hebraeum test (AMBYHE); format: in vivo; conditions: 100 ppm, after 42 days
Method: Amblyomma hebraeum—Test (AMBYHE)
as §1
Tick nymphs (Amblyomma hebraeum) are placed in perforated plastic beakers and immersed in the aqueous compound solution for one minute. Ticks are transferred to a filter paper in a petridish and incubated in a climate chamber.

[7] = tested on: cattle ticks (Boophilus microplus) strane Parhurst, SP-resistant; experiment: Boophilus microplus dip test (BOOPMI Dip); format: in vivo; conditions: 100 ppm, egg deposition after 7 days
Source text: Boophilus microplus—Diptest (BOOPMI Dip)
Test animal: cattle ticks (Boophilus microplus) strane Parhurst, SP-resistant
as §1
This compound solution is pipetted into tubes. 8-10 engorged, adult, female cattle ticks (Boophilus microplus) are placed in perforated tubes. These tubes are immersed in the aqueous compound solution until the ticks are completely moistened. After the liquid has drained off, the ticks are transferred to a filter paper in a plastic tray and stored in a climate chamber.
as §2

[8] = tested on: adult house flies (Musca domestica); experiment: Musca domestica test (MUSCDO); format: in vivo; conditions: 100 ppm, after 2 days
Source text: Musca domestica—Test (MUSCDO)
as §1
10 adult house flies (Musca domestica) are transferred into a container, containing a sponge soaked with a mixture of sugar solution and compound solution of the desired concentration.

[9] = tested on: fall armyworm larvae (Spodoptera frugiperda); experiment: Spodoptera frugiperda spray test (maize leaf sections); format: in vivo; conditions: 100 g/ha, after 7 days
Source text: Spodoptera frugiperda—Spray Test
as §3, §4
Maize (Zea mays) leaf sections are sprayed with a preparation of the active ingredient of the desired concentration. Once dry, the leaf sections are infested with fall armyworm larvae (Spodoptera frugiperda).

[10] = tested on: adult cat fleas (Ctenocephalides felis); experiment: Ctenocephalides felis in-vitro contact test, adult cat flea; format: in vivo; conditions: 5 μg/cm^2 (=500 g/ha), after 48 hours
Method: Ctenocephalides felis—In-Vitro Contact Tests Adult Cat Flea
(§6) 9 mg compound is solved in 1 ml acetone and diluted with acetone to the desired concentration. 250 μl of the test solution is filled in 25 ml glass test tubes and homogeneously distributed on the inner walls by rotation and tilting on a shaking device (2 h at 30 rpm). With a compound concentration of 900 ppm, an inner surface of 44.7 cm^2 and a homogeneous distribution, a dose of 5 μg/cm^2 is achieved.
(§7) After the solvent has evaporated, each test tube is filled with 5-10 adult cat fleas (Ctenocephalides felis), closed with a perforated lid and incubated in a lying position at room temperature and relative humidity. After 48 hours efficacy is determined. The fleas are patted on the ground of the tubes and are incubated on a heating plate at 45-50° C. for at most 5 minutes. Immotile or uncoordinated moving fleas, which are not able to escape the heat by climbing upwards, are marked as dead or moribund.
An efficacy of 100% means all fleas are dead or moribund; 0% means no fleas are dead or moribund.

[11] = tested on: adult brown dog ticks (Rhipicephalus sanguineus); experiment: Rhipicephalus sanguineus in-vitro contact test with adult brown dog ticks; format: in vivo; conditions: 5 μg/cm^2 (=500 g/ha), after 48 hours
Method: Rhipicephalus sanguineus—In-Vitro Contact Tests with Adult Brown Doe Ticks
as §6
as §7, with “brown dog ticks (Rhipicephalus sanguineus),” for “cat fleas (Ctenocephalides felis),”, “ticks” for “fleas”, “ticks,” for “fleas,”
An efficacy of 100% means all ticks are dead or moribund; 0% means no ticks are dead or moribund.

[12] = tested on: two-spotted spider mite (Tetranychus urticae); experiment: Tetranychus urticae spray test; OP-resistant (bean plants); format: in vivo; conditions: after 7 days
[13] = tested on: two spotted spidermite (Tetranychus urticae); experiment: Tetranychus urticae spray test OP-resistant (French bean leaf disks); format: in vivo; conditions: 100 g/ha, after 6 days
Method: Tetranychus urticae—Spray Test OP-Resistant
as §3, §4
French bean (Phaseolus vulgaris) leaf disks which are heavily infested with all stages of the two spotted spidermite (Tetranychus urticae) are sprayed with a preparation of the active ingredient of the desired concentration.
as §5

Compound: Cn1nc(C(F)(F)F)c(S(C)(=O)=O)c1-n1cc(-c2ccc(Cl)c(C(=O)NC3CC3)c2)cn1 [Example I-05]
logP [1]: 2.34
efficacy (infertile eggs) [2]: 100%
mortality in % [3]: 90%
mortality in % ([4]; 20 ppm): 100%

Compound: CSc1c(C(F)(F)C(F)(F)F)nn(C)c1-n1cc(-c2ccc(C)c(C(=O)NC3(C#N)CC3)c2)cn1 [Example I-16]
logP [1]: 3.55

Compound: Cn1nc(C(F)(F)C(F)(F)F)c([S+](C)[O-])c1-n1cc(-c2ccc(Cl)c(C(=O)NC3(C#N)CC3)c2)cn1 (single isomer, unassigned) [Example I-08]
logP [1]: 2.59

Compound: Cc1ncc(-c2cnn(-c3c([S+](C)[O-])c(C(F)(F)C(F)(F)F)nn3C)c2)cc1C(=O)NC1(C#N)CC1 (centres unmarked) [Example I-10]
logP [1]: 1.99

Compound: Cc1ccc(-c2cnn(-c3c(S(C)(=O)=O)c(C(F)(F)C(F)(F)F)nn3C)c2)cc1C(=O)NC1(C#N)CC1 [Example I-23]
logP [1]: 2.79
efficacy (infertile eggs) [2]: 100%
mortality in % [5]: 100%

Compound: CCSc1c(C(F)(F)C(F)(F)F)nn(C)c1-n1cc(-c2ccc(Cl)c(C(=O)NC3CC3)c2)cn1 [Example I-11]
logP [1]: 3.85
mortality in % [6]: 100%
efficacy (infertile eggs) [7]: 100%
efficacy (infertile eggs) [2]: 100%
mortality in % [8]: 100%
mortality in % [9]: 100%

chromatographic logP [1]: 2.68
Compound: Cn1nc(C(F)(F)C(F)(F)F)c(N)c1-n1cc(Br)cn1 [Example 14, 4-bromo-2′-methyl-5′-(pentafluoroethyl)-2′H-1,3′-bipyrazol-4′-amine]

Compound: CCSc1c(C(F)(F)C(F)(F)F)nn(C)c1-n1cc(-c2ccc(Cl)c(C(=O)NC3(C#N)CC3)c2)cn1 [Example I-15]
logP [1]: 3.76
efficacy (fleas dead or moribund) [10]: 100%
efficacy (ticks dead or moribund) [11]: 100%
mortality in % [6]: 100%
efficacy (infertile eggs) [7]: 100%
efficacy (infertile eggs) [2]: 100%
mortality in % [8]: 90%
mortality in % [9]: 100%

Compound: Cn1nc(C(F)(F)F)c([S+](C)[O-])c1-n1cc(-c2ccc(Cl)c(C(=O)NC3(C#N)CC3)c2)cn1 (centres unmarked) [Example I-01]
logP [1]: 2.16
mortality in % ([12]; 20 ppm): 100%

Compound: CSc1c(C(F)(F)C(F)(F)F)nn(C)c1-n1cc(-c2ccc(C)c(C(=O)NC3CC3)c2)cn1 [Example I-17]
logP [1]: 3.64

Compound: Cn1nc(C(F)(F)C(F)(F)F)c([S+](C)[O-])c1-n1cc(-c2ccc(Cl)c(C(=O)NC3(C#N)CC3)c2)cn1 (single isomer, unassigned) [Example I-21]
logP [1]: 2.59

Compound: Cc1ccc(-c2cnn(-c3c([S+](C)[O-])c(C(F)(F)C(F)(F)F)nn3C)c2)cc1C(=O)NC1(C#N)CC1 (centres unmarked) [Example I-24]
logP [1]: 2.57
efficacy (infertile eggs) [2]: 100%

Compound: Cn1nc(C(F)(F)C(F)(F)F)c(S(C)(=O)=O)c1-n1cc(-c2ccc(Cl)c(C(=O)NC3(C#N)CC3)c2)cn1 [Example I-04]
logP [1]: 2.77
efficacy (infertile eggs) [2]: 100%
mortality in % [8]: 100%

Compound: CC[S+]([O-])c1c(C(F)(F)C(F)(F)F)nn(C)c1-n1cc(-c2ccc(Cl)c(C(=O)NC3(C#N)CC3)c2)cn1 (centres unmarked) [Example I-25]
logP [1]: 2.84
mortality in % ([12]; 4 ppm): 95%

Compound: Cc1ncc(-c2cnn(-c3c([S+](C)[O-])c(C(F)(F)C(F)(F)F)nn3C)c2)cc1C(=O)NC1CC1 (centres unmarked) [Example I-14]
logP [1]: 1.85

Compound: CSc1c(C(F)(F)C(F)(F)F)nn(C)c1-n1cc(-c2ccc(Cl)c(C(=O)NC3CC3)c2)cn1 [Example I-12]
logP [1]: 3.65
efficacy (fleas dead or moribund) [10]: 100%
efficacy (ticks dead or moribund) [11]: 100%
efficacy (infertile eggs) [7]: 100%
efficacy (infertile eggs) [2]: 100%
mortality in % [8]: 100%
mortality in % [9]: 100%

Compound: Cc1ccc(-c2cnn(-c3c([S+](C)[O-])c(C(F)(F)C(F)(F)F)nn3C)c2)cc1C(=O)NC1CC1 (centres unmarked) [Example I-18]
logP [1]: 2.57
efficacy (fleas dead or moribund) [10]: 100%
efficacy (ticks dead or moribund) [11]: 80%
efficacy (infertile eggs) [2]: 100%

Compound: CSc1c(C(F)(F)C(F)(F)F)nn(C)c1-n1cc(-c2cnc(Cl)c(C(=O)N(C)C3CC3)c2)cn1 [Example I-19]
logP [1]: 3.67

Compound: Cc1ccc(-c2cnn(-c3c(S(C)(=O)=O)c(C(F)(F)C(F)(F)F)nn3C)c2)cc1C(=O)NC1CC1 [Example I-09]
logP [1]: 2.75
efficacy (fleas dead or moribund) [10]: 100%
efficacy (infertile eggs) [7]: 80%
efficacy (infertile eggs) [2]: 100%
mortality in % [3]: 90%
mortality in % [8]: 80%

Compound: Cn1nc(C(F)(F)C(F)(F)F)c([S+](C)[O-])c1-n1cc(-c2ccc(Cl)c(C(=O)NC3CC3)c2)cn1 (centres unmarked) [Example I-06]
logP [1]: 2.60
efficacy (fleas dead or moribund) [10]: 100%
efficacy (infertile eggs) [2]: 100%
mortality in % [8]: 100%
mortality in % [9]: 100%
mortality in % [13]: 90%
mortality in % ([4]; 20 ppm): 99%
mortality in % ([12]; 20 ppm): 90%

Compound: CC[S+]([O-])c1c(C(F)(F)C(F)(F)F)nn(C)c1-n1cc(-c2ccc(Cl)c(C(=O)NC3CC3)c2)cn1 (centres unmarked) [Example I-22]
logP [1]: 2.88

Compound: Cn1nc(C(F)(F)C(F)(F)F)c([S+](C)[O-])c1-n1cc(-c2cnc(Cl)c(C(=O)NC3(C#N)CC3)c2)cn1 (centres unmarked) [Example I-20]
logP [1]: 2.23
efficacy (infertile eggs) [2]: 100%
mortality in % [8]: 90%
mortality in % ([4]; 4 ppm): 95%

Compound: Cn1nc(C(F)(F)C(F)(F)F)c(S(C)(=O)=O)c1-n1cc(-c2ccc(Cl)c(C(=O)NC3CC3)c2)cn1 [Example I-07]
logP [1]: 2.78
efficacy (fleas dead or moribund) [10]: 100%
mortality in % [6]: 100%
efficacy (infertile eggs) [7]: 100%
efficacy (infertile eggs) [2]: 100%
mortality in % [8]: 100%
mortality in % [9]: 100%

chromatographic logP [1]: 3.95
Compound: CSc1c(C(F)(F)C(F)(F)F)nn(C)c1-n1cc(Br)cn1 [Example 15, 4-bromo-2′-methyl-4′-(methylsulfanyl)-5′-(pentafluoroethyl)-2′H-1,3′-bipyrazole]

Compound: Cn1nc(C(F)(F)C(F)(F)F)c([S+](C)[O-])c1-n1cc(-c2ccc(Cl)c(C(=O)NC3(C#N)CC3)c2)cn1 (racemic) [Example I-03]
logP [1]: 2.61
efficacy (fleas dead or moribund) [10]: 100%
efficacy (infertile eggs) [2]: 100%
mortality in % [8]: 100%
